Data on three compounds can be found in PMC12888856 (Antimicrobial Agents and Chemotherapy, 2025).

What all share (type): cell-based, Influenza A virus
Test [1] has as its system Oseltamivir-resistant A/Weiss/1943 (NA H275Y).
The subject of test [2] is A/Malaya/302/1954 (H1N1). Put plainly: microbe, parasite or virus in culture. Particulars: read-out: EC50.
For test [3], the system named is Baloxavir-resistant A/Puerto Rico/8/1934 (PA I38T).

pEC50: −log10 of the molar value. Bounds are passed on as bounds.

Regarding `COC[C@@]1(C)COC[C@@H](COc2ccc(-c3cc(C(N)=O)c(O)nc3C(F)(F)F)cc2)O1` [VNT-101], the pEC50 (in general, the EC50 on a negative log10 scale, so that one unit is a factor of ten) in test [1] was 6.93; in test [2], less than 4.30.
For `O=C1c2c(O)c(=O)ccn2N([C@@H]2c3ccccc3SCc3c2ccc(F)c3F)[C@@H]2COCCN12` [Baloxavir, baloxavir, reference compound], the pEC50 in test [1] was 9.38; in test [2], 8.96; in test [3] it was 6.98.
Turning to `CCOC(=O)C1=C[C@@H](OC(CC)CC)[C@H](NC(C)=O)[C@@H](N)C1` [Oseltamivir, oseltamivir, reference compound], the pEC50 in test [1] was less than 4.11; in test [2], 5.94; in test [3], 5.55. Besides, the Fold shift in test [1] is greater than 74.66; in test [3], 2.89.
